Measured values published in ChEMBL document CHEMBL1201862, “PubChem BioAssay data set” (2004).
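These data come from cells grown in 96-well plates and exposed to compound for 48 hours at five concentrations. GI50 is the concentration that inhibits growth by half.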 Active and inactive are the calls of the source. Rule as the data show it: active = GI50 up to about 1.1 µM and inactive = higher.

Tests used:
Experiment in all cases: DTP human tumour cell line panel, 48 h
[1] = test system: UO-31
[2] = test system: A549
[3] = test system: NCI-H460
[4] = test system: OVCAR-8
[5] = test system: MDA-MB-231
[6] = test system: HCT-116
[7] = test system: TK-10
[8] = test system: MOLT-4
[9] = test system: OVCAR-5
[10] = test system: SF-268
[11] = test system: CAKI-1
[12] = test system: M14
[13] = test system: 786-0
[14] = test system: CCRF-CEM
[15] = test system: A498
[16] = test system: COLO 205
[17] = test system: UACC-257
[18] = test system: HOP-92
[19] = test system: SF-295

Measured: GI50

O=C1N[C@H]2c3c(Cl)sc(Cl)c3[C@@H](O)[C@H]2O1
inactive: [1] > 100 µM | [2] > 100 µM | [3] > 100 µM | [4] > 100 µM | [5] > 100 µM | [6] > 100 µM | [7] > 100 µM | [8] > 100 µM | [9] > 100 µM | [10] > 100 µM | [11] > 100 µM | [12] > 100 µM | [13] > 100 µM | [14] > 100 µM | [15] > 100 µM | [16] > 100 µM | [17] > 100 µM

N/C(=N\O)N/N=C/c1ccc(O)c(O)c1
inactive: [1] > 100 µM | [18] > 100 µM | [2] > 100 µM | [3] > 100 µM | [4] > 100 µM | [6] > 100 µM | [7] > 100 µM | [8] > 100 µM | [9] > 100 µM | [10] > 100 µM | [11] > 100 µM | [12] > 100 µM | [13] > 100 µM | [14] > 100 µM | [19] > 100 µM | [15] > 100 µM | [16] > 100 µM | [17] > 100 µM

Cc1ccc([S+]([O-])/C=C(\NC(=O)OCc2ccccc2)C(F)(F)F)cc1 (stereo not given)
inactive: [1] 21.9 µM | [18] 55.8 µM | [2] 41 µM | [3] 41.4 µM | [4] 36.9 µM | [5] 55.2 µM | [6] 45.7 µM | [7] 80.2 µM | [8] 25.2 µM | [9] 52 µM | [11] 42 µM | [12] > 100 µM | [13] 53.3 µM | [14] 31.6 µM | [19] 39.8 µM | [16] 58.6 µM | [17] 78 µM

O=C(NNC(c1ccccc1)C(F)(F)F)c1ccncc1 (stereo not given)
inactive: [18] > 100 µM | [2] > 100 µM | [3] > 100 µM | [4] > 100 µM | [5] > 100 µM | [6] > 100 µM | [7] > 100 µM | [8] > 100 µM | [9] > 100 µM | [10] > 100 µM | [11] > 100 µM | [12] > 100 µM | [13] > 100 µM | [14] > 100 µM | [19] > 100 µM | [16] > 100 µM | [17] > 100 µM

O=C(CCCNC(=O)OCc1ccccc1)OCc1ccc2c(c1)C(=O)c1ccccc1C2=O
inactive: [1] > 100 µM | [18] 36.6 µM | [2] > 100 µM | [3] > 100 µM | [4] 47.9 µM | [6] > 100 µM | [7] 34.8 µM | [8] > 100 µM | [9] > 100 µM | [10] 53.8 µM | [11] > 56.8 µM | [12] > 100 µM | [13] 25.3 µM | [14] > 100 µM | [19] 11.3 µM | [15] 27.2 µM | [16] > 7.6 µM | [17] > 100 µM

O=c1[nH]c2ccccc2cc1C(Cl)=C(Cl)Cl
inactive: [1] > 100 µM | [18] > 100 µM | [2] > 100 µM | [3] > 100 µM | [4] > 100 µM | [6] > 100 µM | [7] > 100 µM | [8] > 100 µM | [9] > 100 µM | [10] > 100 µM | [11] > 100 µM | [12] > 100 µM | [13] > 100 µM | [14] > 100 µM | [19] > 100 µM | [15] > 100 µM | [16] > 100 µM | [17] > 100 µM

Cc1ccc(C)c(NC(=O)C(=O)Nn2c(S)nc3ccccc3c2=O)c1
inactive: [1] > 100 µM | [18] > 100 µM | [2] > 100 µM | [3] > 100 µM | [4] > 100 µM | [6] > 100 µM | [7] > 100 µM | [8] > 100 µM | [9] > 100 µM | [10] > 100 µM | [11] > 100 µM | [12] > 100 µM | [13] > 100 µM | [14] > 100 µM | [19] > 100 µM | [15] > 100 µM | [16] > 100 µM | [17] > 100 µM

O=C1C(c2ccccc2)=C(c2ccccc2)C(c2ccc(Sc3ccc(C4=C(c5ccccc5)C(=O)C(c5ccccc5)=C4c4ccccc4)cc3)cc2)=C1c1ccccc1
inactive: [1] > 100 µM | [18] > 100 µM | [2] > 100 µM | [3] > 100 µM | [4] > 100 µM | [6] > 100 µM | [7] > 100 µM | [8] > 100 µM | [9] > 100 µM | [10] > 100 µM | [11] > 100 µM | [12] > 100 µM | [13] > 100 µM | [14] > 100 µM | [19] > 100 µM | [15] > 100 µM | [16] > 100 µM | [17] > 100 µM

CCCCCCCCCCCCCCCC/C(C(=O)OC)=C(/O)C(=O)OCC
inactive: [1] 94 µM | [18] 38.9 µM | [2] > 100 µM | [3] > 100 µM | [4] > 100 µM | [6] > 100 µM | [7] > 100 µM | [8] > 100 µM | [9] > 100 µM | [10] > 100 µM | [11] > 100 µM | [12] > 100 µM | [13] > 100 µM | [14] > 100 µM | [19] > 100 µM | [15] > 100 µM | [16] > 100 µM | [17] > 100 µM

Cc1ccc(N2C(=O)C3C=CC(n4[nH]c(=O)n(Cc5ccccc5)c4=O)CC3C2=O)cc1 (stereo not given)
inactive: [1] > 100 µM | [18] > 100 µM | [2] > 100 µM | [3] > 100 µM | [4] > 100 µM | [6] > 100 µM | [7] > 100 µM | [8] > 100 µM | [9] > 100 µM | [10] > 100 µM | [11] > 100 µM | [12] > 100 µM | [13] > 100 µM | [14] > 100 µM | [19] > 100 µM | [15] > 100 µM | [16] > 100 µM | [17] > 100 µM

C/C(=N/N(C=O)C[n+]1ccccc1)C(CN(CC(C)C)CC(C)C)C(=O)Nc1ccc(C)cc1C (stereo not given)
inactive: [1] 25.8 µM | [18] 75.3 µM | [2] > 100 µM | [3] > 100 µM | [4] > 100 µM | [6] > 100 µM | [7] 42.4 µM | [8] > 100 µM | [9] 63.1 µM | [10] 43 µM | [11] 55.1 µM | [12] > 100 µM | [13] > 100 µM | [14] > 100 µM | [19] 71.8 µM | [15] 33.1 µM | [16] > 100 µM | [17] > 100 µM
